Results reported in PubChem BioAssay (NCI).
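Interpolation was linear, between the two tested concentrations surrounding the appropriate level; five concentrations were tested over 48 hours in 96-well plates. The concentration for 50% growth inhibition is given as GI50. At the TGI there is no net growth.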

Tests used:
Assay in all cases: NCI-60 cell line screen, 48 h
NCI-H522 lung = system: NCI-H522 lung
HS 578T breast = system: HS 578T breast
MCF7 breast = system: MCF7 breast
MDA-MB-435 = system: MDA-MB-435
KM12 colon = system: KM12 colon
OVCAR-8 ovarian = system: OVCAR-8 ovarian
SF-539 CNS = system: SF-539 CNS
MALME-3M melanoma = system: MALME-3M melanoma
EKVX NSCLC = system: EKVX NSCLC
SF-295 CNS = system: SF-295 CNS
SF-268 CNS = system: SF-268 CNS
CAKI-1 renal = system: CAKI-1 renal
HOP-62 NSCLC = system: HOP-62 NSCLC
PC-3 prostate = system: PC-3 prostate
SNB-19 CNS = system: SNB-19 CNS
RXF 393 renal = system: RXF 393 renal
T-47D breast = system: T-47D breast
SK-MEL-5 melanoma = system: SK-MEL-5 melanoma
CCRF-CEM leukemia = system: CCRF-CEM leukemia
SNB-75 CNS = system: SNB-75 CNS
MOLT-4 leukemia = system: MOLT-4 leukemia
ACHN renal = system: ACHN renal
SN12C renal = system: SN12C renal
OVCAR-5 ovarian = system: OVCAR-5 ovarian
SR leukemia = system: SR leukemia
A498 renal = system: A498 renal
SK-OV-3 ovarian = system: SK-OV-3 ovarian
786-0 renal = system: 786-0 renal
BT-549 breast = system: BT-549 breast
NCI-H23 lung = system: NCI-H23 lung
HCT-116 colon = system: HCT-116 colon
LOX IMVI melanoma = system: LOX IMVI melanoma
HCT-15 colon = system: HCT-15 colon
OVCAR-4 ovarian = system: OVCAR-4 ovarian
HT29 colon = system: HT29 colon
SK-MEL-28 melanoma = system: SK-MEL-28 melanoma
SK-MEL-2 melanoma = system: SK-MEL-2 melanoma
NCI-H226 lung = system: NCI-H226 lung
MDA-MB-231 breast = system: MDA-MB-231 breast
A549 NSCLC = system: A549 NSCLC
HCC-2998 colon = system: HCC-2998 colon
U251 CNS = system: U251 CNS
IGROV1 ovarian = system: IGROV1 ovarian
DU-145 prostate = system: DU-145 prostate
NCI-H460 lung = system: NCI-H460 lung
COLO 205 colon = system: COLO 205 colon
UO-31 renal = system: UO-31 renal
K-562 leukemia = system: K-562 leukemia
SW-620 colon = system: SW-620 colon
UACC-257 melanoma = system: UACC-257 melanoma
HL-60(TB) leukemia = system: HL-60(TB) leukemia
RPMI-8226 leukemia = system: RPMI-8226 leukemia
UACC-62 melanoma = system: UACC-62 melanoma
TK-10 renal = system: TK-10 renal
HOP-92 NSCLC = system: HOP-92 NSCLC
NCI/ADR-RES ovarian = system: NCI/ADR-RES ovarian
M14 melanoma = system: M14 melanoma

## Oc1ccc(CSc2nnc(-c3ccccc3)o2)c2cccnc12
NCI-H522 lung
  GI50: 2330 nM
  TGI: > 100000 nM
HS 578T breast
  GI50: 721 nM
  TGI: > 100000 nM
MCF7 breast
  GI50: 2450 nM
  TGI: > 100000 nM
MDA-MB-435
  GI50: 1080 nM
  TGI: > 100000 nM
KM12 colon
  GI50: 724 nM
  TGI: > 100000 nM
OVCAR-8 ovarian
  GI50: 1770 nM
  TGI: > 100000 nM
SF-539 CNS
  GI50: 1490 nM
  TGI: 15800 nM
MALME-3M melanoma
  GI50: 2800 nM
  TGI: > 100000 nM
EKVX NSCLC
  GI50: 2620 nM
  TGI: > 100000 nM
SF-295 CNS
  GI50: 1390 nM
  TGI: 21000 nM
SF-268 CNS
  GI50: 920 nM
  TGI: > 100000 nM
CAKI-1 renal
  GI50: 2870 nM
  TGI: > 100000 nM
HOP-62 NSCLC
  GI50: 2330 nM
  TGI: 30600 nM
PC-3 prostate
  GI50: 1030 nM
  TGI: > 100000 nM
SNB-19 CNS
  GI50: 817 nM
  TGI: 19300 nM
RXF 393 renal
  GI50: 3270 nM
  TGI: 97200 nM
T-47D breast
  GI50: 2550 nM
  TGI: > 100000 nM
SK-MEL-5 melanoma
  GI50: 1830 nM
  TGI: 6400 nM
CCRF-CEM leukemia
  GI50: 1130 nM
  TGI: > 100000 nM
SNB-75 CNS
  GI50: 1470 nM
  TGI: 15600 nM
MOLT-4 leukemia
  GI50: 2030 nM
  TGI: > 100000 nM
ACHN renal
  GI50: 2030 nM
  TGI: 5890 nM
SN12C renal
  GI50: 2640 nM
  TGI: > 100000 nM
OVCAR-5 ovarian
  GI50: 6650 nM
  TGI: > 100000 nM
SR leukemia
  GI50: 873 nM
  TGI: > 100000 nM
A498 renal
  GI50: 4100 nM
  TGI: > 100000 nM
SK-OV-3 ovarian
  GI50: 2870 nM
  TGI: 15000 nM
786-0 renal
  GI50: 3140 nM
  TGI: 11900 nM
BT-549 breast
  GI50: 923 nM
  TGI: > 100000 nM
NCI-H23 lung
  GI50: 2440 nM
  TGI: 14000 nM
HCT-116 colon
  GI50: 1650 nM
  TGI: > 100000 nM
LOX IMVI melanoma
  GI50: 1560 nM
  TGI: 11300 nM
HCT-15 colon
  GI50: 797 nM
  TGI: > 100000 nM
OVCAR-4 ovarian
  GI50: 4340 nM
  TGI: > 100000 nM
HT29 colon
  GI50: 6970 nM
  TGI: > 100000 nM
SK-MEL-28 melanoma
  GI50: 2290 nM
  TGI: > 100000 nM
SK-MEL-2 melanoma
  GI50: 2550 nM
  TGI: 29800 nM
NCI-H226 lung
  GI50: 3780 nM
  TGI: > 100000 nM
MDA-MB-231 breast
  GI50: 4010 nM
  TGI: > 100000 nM
A549 NSCLC
  GI50: 2690 nM
  TGI: > 100000 nM
HCC-2998 colon
  GI50: 2260 nM
  TGI: > 100000 nM
U251 CNS
  GI50: 783 nM
  TGI: > 100000 nM
IGROV1 ovarian
  GI50: 2420 nM
  TGI: > 100000 nM
DU-145 prostate
  GI50: 3410 nM
  TGI: > 100000 nM
NCI-H460 lung
  GI50: 527 nM
  TGI: > 100000 nM
COLO 205 colon
  GI50: 59300 nM
  TGI: > 100000 nM
UO-31 renal
  GI50: 1560 nM
  TGI: 7470 nM
K-562 leukemia
  GI50: 2050 nM
  TGI: > 100000 nM
SW-620 colon
  GI50: 2570 nM
  TGI: > 100000 nM
UACC-257 melanoma
  GI50: 2620 nM
  TGI: 8920 nM
HL-60(TB) leukemia
  GI50: 1390 nM
  TGI: 6620 nM
RPMI-8226 leukemia
  GI50: 772 nM
  TGI: > 100000 nM
UACC-62 melanoma
  GI50: 2190 nM
  TGI: 6010 nM
TK-10 renal
  GI50: 2520 nM
  TGI: 9860 nM
HOP-92 NSCLC
  GI50: 499 nM
  TGI: 5360 nM

## O=C(Nc1cc(C(F)(F)F)cc(C(F)(F)F)c1)Nc1ccc2oc(=O)ccc2c1
NCI-H522 lung
  GI50: 1400 nM
  TGI: 5000 nM
HS 578T breast
  GI50: 2440 nM
  TGI: 6360 nM
MCF7 breast
  GI50: 2880 nM
  TGI: > 100000 nM
MDA-MB-435
  GI50: 2970 nM
  TGI: > 100000 nM
OVCAR-8 ovarian
  GI50: 1960 nM
  TGI: > 100000 nM
MALME-3M melanoma
  GI50: 1870 nM
  TGI: 5080 nM
EKVX NSCLC
  GI50: 3920 nM
  TGI: > 100000 nM
SF-295 CNS
  GI50: 1440 nM
  TGI: > 100000 nM
SF-268 CNS
  GI50: 2950 nM
  TGI: > 100000 nM
CAKI-1 renal
  GI50: 1250 nM
  TGI: 4860 nM
PC-3 prostate
  GI50: 753 nM
  TGI: > 100000 nM
SNB-19 CNS
  GI50: 1230 nM
  TGI: > 100000 nM
SK-MEL-5 melanoma
  GI50: 1230 nM
  TGI: 2510 nM
CCRF-CEM leukemia
  GI50: 1220 nM
  TGI: > 100000 nM
SNB-75 CNS
  GI50: 1930 nM
  TGI: 6590 nM
MOLT-4 leukemia
  GI50: 758 nM
  TGI: > 100000 nM
ACHN renal
  GI50: 1290 nM
  TGI: > 100000 nM
NCI/ADR-RES ovarian
  GI50: 2010 nM
  TGI: > 100000 nM
SR leukemia
  GI50: 997 nM
  TGI: 5090 nM
A498 renal
  GI50: 1670 nM
  TGI: 4970 nM
SK-OV-3 ovarian
  GI50: 2320 nM
  TGI: 5700 nM
BT-549 breast
  GI50: 2360 nM
  TGI: 6560 nM
LOX IMVI melanoma
  GI50: 1600 nM
  TGI: 4370 nM
HCT-15 colon
  GI50: 2110 nM
  TGI: > 100000 nM
OVCAR-4 ovarian
  GI50: 1250 nM
  TGI: > 100000 nM
HT29 colon
  GI50: 2470 nM
  TGI: > 100000 nM
SK-MEL-28 melanoma
  GI50: 2790 nM
  TGI: > 100000 nM
SK-MEL-2 melanoma
  GI50: 1680 nM
  TGI: 3410 nM
MDA-MB-231 breast
  GI50: 2770 nM
  TGI: > 100000 nM
A549 NSCLC
  GI50: 2140 nM
  TGI: > 100000 nM
HCC-2998 colon
  GI50: 2770 nM
  TGI: > 100000 nM
U251 CNS
  GI50: 1290 nM
  TGI: > 100000 nM
IGROV1 ovarian
  GI50: 1510 nM
  TGI: > 100000 nM
DU-145 prostate
  GI50: 2000 nM
  TGI: > 100000 nM
COLO 205 colon
  GI50: 1750 nM
  TGI: 3460 nM
K-562 leukemia
  GI50: 782 nM
  TGI: > 100000 nM
SW-620 colon
  GI50: 3020 nM
  TGI: > 100000 nM
UACC-257 melanoma
  GI50: 2020 nM
  TGI: 6130 nM
HL-60(TB) leukemia
  GI50: 705 nM
  TGI: 5740 nM
RPMI-8226 leukemia
  GI50: 426 nM
  TGI: 2360 nM
TK-10 renal
  GI50: 2990 nM
  TGI: > 100000 nM
M14 melanoma
  GI50: 2710 nM
  TGI: > 100000 nM
HOP-92 NSCLC
  GI50: 1410 nM
  TGI: 4890 nM
